From ChEMBL document CHEMBL4414614, “Phthalideisoquinoline Hemiacetal Alkaloids from Corydalis decumbens That Inhibit Spontaneous Calcium Oscillations, Including Alkyl Derivatives of (+)-Egenine That Are Strikingly Levorotatory” (J Nat Prod, 2019)
pIC50: −log10 of the molar value.

Key:
Format in all cases: functional
Mus musculus [1] = species: Mus musculus; assay: (§1) Inhibition of neuronal excitability in C57BL/6 mouse Neocortical neurons assessed as effect on spontaneous calcium oscillation frequency measured for 10 mins by Fluo-4 staining based FLIPR assay
[2] = as §1; conditions: C57BL/6, 10 min
Mus musculus [3] = species: Mus musculus; assay: (§2) Inhibition of neuronal excitability in C57BL/6 mouse Neocortical neurons assessed as reduction in spontaneous calcium oscillation amplitude measured for 10 mins by Fluo-4 staining based FLIPR assay
[4] = as §2; conditions: C57BL/6, 10 min

| pIC50 [2] | pIC50 [4] | Compound | inhibition (Mus musculus [1]) | inhibition (Mus musculus [3]) |
| --- | --- | --- | --- | --- |
| 5.08 | 5.08 | CCO[C@H]1O[C@@H]([C@@H]2c3cc4c(cc3CCN2C)OCO4)c2ccc3c(c21)OCO3 | Dose-dependent effect | Dose-dependent effect |
| 4.99 | 4.99 | CCO[C@@H]1O[C@@H]([C@@H]2c3cc(OC)c(OC)cc3CCN2C)c2ccc3c(c21)OCO3 | Dose-dependent effect | Dose-dependent effect |
| 5.51 | 5.51 | CCO[C@@H]1O[C@@H]([C@@H]2c3cc4c(cc3CCN2C)OCO4)c2ccc3c(c21)OCO3 | Dose-dependent effect | Dose-dependent effect |
| 4.94 | 4.94 | COc1cc2c(cc1OC)[C@@H]([C@@H]1O[C@H](O)c3c1ccc1c3OCO1)N(C)CC2 | Dose-dependent effect | Dose-dependent effect |

| Compound | pIC50 [2] | pIC50 [4] | inhibition (Mus musculus [1]) | inhibition (Mus musculus [3]) |
| --- | --- | --- | --- | --- |
| CO[C@H]1O[C@@H]([C@@H]2c3cc4c(cc3CCN2C)OCO4)c2ccc3c(c21)OCO3 | 5.17 | 5.17 | Dose-dependent effect | Dose-dependent effect |
| CO[C@@H]1O[C@@H]([C@@H]2c3cc4c(cc3CCN2C)OCO4)c2ccc3c(c21)OCO3 | 5.25 | 5.25 | Dose-dependent effect | Dose-dependent effect |
